Data: article PMC7054097, “Vanillin Production in Pseudomonas: Whole-Genome Sequencing of Pseudomonas sp. Strain 9.1 and Reannotation of Pseudomonas putida CalA as a Vanillin Reductase” (Applied and Environmental Microbiology, 2020)

Experiments:
[1] = target: T1, PP_3839 (adhP) gene product; calA-II (coniferyl alcohol dehydrogenase) (Pseudomonas putida, UniProt Q88G86); test: soluble cell extract, absorbance at […] nm; also whole-cell HPLC; format: biochemical; details: 1 mM substrate, 0.5 mM NAD+, 33 mM sodium phosphate pH 7, 30 °C
T1 construct: whole cells or soluble extract

[2] = target: T1, PP_3839 (adhP) gene product; calA-II (coniferyl alcohol dehydrogenase); test: soluble cell extract, absorbance at […] nm; format: biochemical; details: 0.5 mM NAD+, 1 mM coniferyl alcohol, 33 mM sodium phosphate pH 7, 30 °C

T1 sequence (Q88G86 1-336): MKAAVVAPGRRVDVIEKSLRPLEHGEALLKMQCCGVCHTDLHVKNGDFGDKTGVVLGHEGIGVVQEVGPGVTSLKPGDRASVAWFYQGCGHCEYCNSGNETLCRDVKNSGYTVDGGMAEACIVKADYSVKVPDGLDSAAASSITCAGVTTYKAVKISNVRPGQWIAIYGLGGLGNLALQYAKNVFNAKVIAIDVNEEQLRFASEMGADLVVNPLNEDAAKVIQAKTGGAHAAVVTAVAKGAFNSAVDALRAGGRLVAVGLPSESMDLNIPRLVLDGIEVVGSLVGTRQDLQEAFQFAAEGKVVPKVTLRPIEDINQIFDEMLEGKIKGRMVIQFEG

SMILES | soluble cell extract, absorbance at 365 nm; also whole-cell HPLC [1] | soluble cell extract, absorbance at 365 nm [2]
COc1cc(/C=C/CO)ccc1O [coniferyl alcohol] | coniferyl alcohol was rapidly oxidized in the presence of NAD^+ | 
NC(=O)c1ccc[n+]([C@@H]2O[C@H](COP(=O)(O)OP(=O)(O)OC[C@H]3O[C@@H](n4cnc5c(N)ncnc54)[C@H](O)[C@@H]3O)[C@@H](O)[C@H]2O)c1 [NAD^+] |  | coniferyl alcohol was rapidly oxidized in the presence of NAD^+
